Measurements reported in patent publication US5378690A, “New renin-inhibitory oligopeptides, their preparation and their use” (Sankyo Company, Limited, priority 1986, dated 1995).

Biological target: T1, human renin (Homo sapiens, UniProt P00797)
T1 sequence (P00797 67-406): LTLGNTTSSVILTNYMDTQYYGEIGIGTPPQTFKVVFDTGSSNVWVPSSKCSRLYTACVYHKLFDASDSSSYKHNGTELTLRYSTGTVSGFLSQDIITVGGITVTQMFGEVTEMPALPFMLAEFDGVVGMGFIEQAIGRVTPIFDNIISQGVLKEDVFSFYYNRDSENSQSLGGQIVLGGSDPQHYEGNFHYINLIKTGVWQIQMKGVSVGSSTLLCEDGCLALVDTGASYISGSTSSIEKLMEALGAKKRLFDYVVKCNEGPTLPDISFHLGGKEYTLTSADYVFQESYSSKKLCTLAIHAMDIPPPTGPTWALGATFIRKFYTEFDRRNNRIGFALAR
Test: Inhibition of renin activity
Format: biochemical
Conditions: 1×10^-6 M of the test compound, sheep angiotensinogen, pH 7.3, 10 minutes at 37° C., mean of 3 or 4 experiments
Protocol: The ability of various compounds of the invention to inhibit the activity of renin was determined according to the following method, which follows essentially the procedure of Kokubu et al. [Hypertension, 5, 191-197 (1983)].
Specifically, each test compound was dissolved in 60% v/v aqueous ethanol. Human renin activity in the presence and absence of each compound was measured using sheep angiotensinogen. The total volume of 1 ml of assay mixture contained 0.1 mole/litre phosphate buffer (pH 7.3), human renin (equivalent to 0.5 ng angiotensin I per ml per minute), sheep angiotensinogen (equivalent to 200 ng angiotensin I) 1×10^-6 M of the test compound, 6% v/v ethanol and angiotensinase inhibitors (10 mmole/litre sodium ethylenediaminetetraacetate and 3.4 mmole/litre 8-hydroxyquinoline). The mixture was allowed to react for 10 minutes at 37° C., and then the reaction was stopped by placing the reaction tube in a boiling water bath for 5 minutes. The mixture was then centrifuged and the supernatant (0.05-0.1 ml) was used to assay remaining angiotensin I.
An identical experiment was carried out, as a control, except that the test compound was omitted. From the values obtained were calculated the % inhibition of renin activity achieved by each test compound. The results are shown in the following Table 9, in which the compounds of the invention are identified by the numbers of the Examples given hereafter in which are described their preparation. The values given are the mean of 3 or 4 experiments.

Compound | Inhibitory Activity (%)
CCCCNC(=O)C[C@H](O)[C@H](CC1CCCCC1)NC(=O)[C@H](Cc1cscn1)NC(=O)[C@H](Cc1cccc2ccccc12)NC(=O)CN(C)C1CCCCC1 [Example 112, N-{N-[N-(N-Cyclohexyl-N-methylaminoacetyl)-3-(1-naphthyl)-L-alanyl]-3-(4-thiazolyl)-L-alanyl}-cyclostatin-butylamide] | 98.0
O=C(C[C@H](O)[C@H](CC1CCCCC1)NC(=O)[C@H](Cc1ccno1)NC(=O)[C@@H](CC(=O)N1CCOCC1)Cc1cccc2ccccc12)NCCN1CCOCC1 [Example 3, N-{N-[(2R)-3-Morpholinocarbonyl-2-(1-naphthylmethyl)propionyl]-3-(5-isoxazolyl)-L-alanyl}-cyclostatin-(2-morpholinoethyl)amide] | 92.2
O=C(C[C@H](O)[C@H](CC1CCCCC1)NC(=O)C(Cc1cscn1)NC(=O)[C@@H](CC(=O)N1CCCCC1)Cc1cccc2ccccc12)NCCN1CCOCC1 (mixture of isomers) [Example 11, N-{N-[(2R)-2-(1-Naphthylmethyl)-3-(piperidinocarbonyl)propionyl]-3-(4-thiazolyl)-DL-alanyl}-cyclostatin-(2-morpholinoethyl)amide] | 96.9
CC[C@H](C)CNC(=O)C[C@H](O)[C@H](CC1CCCCC1)NC(=O)[C@H](Cc1cscn1)NC(=O)[C@H](Cc1cccc2ccccc12)NC(=O)CN1CCOCC1 [Example 98, N-{N-[N-Morpholinoacetyl-3-(1-naphthyl)-L-alanyl]-3-(4-thiazolyl)-L-alanyl}-cyclostatin-[(S)-2-methylbutyl]amide] | 98.1
CC(C)N(CC(=O)N[C@@H](Cc1cccc2ccccc12)C(=O)N[C@@H](Cc1cscn1)C(=O)N[C@@H](CC1CCCCC1)[C@@H](O)CC(=O)NCCN1CCOCC1)Cc1ccccc1 [Example 65, N-{N-[N-(N-Benzyl-N-isopropylaminoacetyl)-3-(1-naphthyl)-L-alanyl]-3-(4-thiazolyl)-L-alanyl}-cyclostatin-(2-morpholinoethy)amide] | 97.4
O=C(C[C@H](O)[C@H](CC1CCCCC1)NC(=O)C(Cc1cscn1)NC(=O)[C@@H](CC(=O)N1CCOCC1)Cc1cccc2ccccc12)NCCN1CCOCC1 (mixture of isomers) [Example 2, N-{N-[(2R)-3-Morpholinocarbonyl-2-(1-naphthylmethyl)propionyl]-3-(4-thiazolyl)-DL-alanyl}-cyclostatin-(2-morpholinoethyl)amide] | 91.2
CC[C@H](C)[C@@H](CN1CCOCC1)NC(=O)C[C@H](O)[C@H](CC1CCCCC1)NC(=O)[C@H](Cc1cscn1)NC(=O)[C@H](CC1CCCCC1)NC(=O)CN(C)Cc1ccccc1 [Example 100, N-{N-[N-(N-Benzyl-N-methylaminoacetyl)-3-cyclohexyl-L-alanyl]-3-(4-thiazolyl)-L-alanyl}-cyclostatin-[(1S,2S)-2-methyl-1-(morpholinomethyl)butyl]amide] | 96.1
CCC(C)[C@@H](CO)NC(=O)C[C@H](O)[C@H](CC1CCCCC1)NC(=O)[C@H](Cc1cscn1)NC(=O)[C@@H](CC(=O)N1CCOCC1)Cc1cccc2ccccc12 (some centres unmarked) [Example 31] | 98.2
O=C(C[C@H](O)[C@H](CC1CCCCC1)NC(=O)C(Cc1cscn1)NC(=O)[C@H](Cc1cccc2ccccc12)NC(=O)CN1CCOCC1)NCCN1CCCC1 (mixture of isomers) [Example 43, N-{N-[N-Morpholinoacetyl-3-(1-naphthyl)-L-alanyl]-(4-thiazolyl)-DL-alanyl]-cyclostatin-2-(1-pyrrolidinylethyl)amide] | 91.2
O=C(C[C@H](O)[C@H](CC1CCCCC1)NC(=O)C(Cc1cscn1)NC(=O)[C@@H](CC(=O)N1CCN(c2ccccc2)CC1)Cc1cccc2ccccc12)NCCN1CCOCC1 (mixture of isomers) [Example 15, N-{N-[(2R)-2-(1-Naphthylmethyl)-3-(4-phenyl-1-piperazinylcarbonyl)propionyl]-3-(4-thiazolyl)-DL-alanyl}-cyclostatin-(2-morpholinoethyl)amide] | 96.3
N-{N-[N-(N-Benzyl-N-methylaminoacetyl)-3-(1-naphthyl)-L-alanyl]-L-tryptophyl}-cyclostatin-[3-(2-oxo-1-pyrrolidinyl)propyl]amide [Example 76] | 97.1
CC(C)CCNC(=O)C[C@H](O)[C@H](CC1CCCCC1)NC(=O)[C@H](Cc1cscn1)NC(=O)[C@H](Cc1cccc2ccccc12)NC(=O)CN1CCOCC1 [Example 108] | 98.6
N-{N-[N-(N-Benzyl-N-ethylaminoacetyl)-3-(1-naphthyl)-L-alanyl]-L-leucyl}-cyclostatin-(2-morpholinoethyl)amide [Example 69] | 96.1
CCCCCNC(=O)C[C@H](O)[C@H](CC1CCCCC1)NC(=O)[C@H](Cc1cscn1)NC(=O)[C@H](Cc1cccc2ccccc12)NC(=O)CN1CCOCC1 [Example 107, N-{N-[N-Morpholinoacetyl-3-(1-naphthyl)-L-alanyl]-3-(4-thiazolyl)-L-alanyl}-cyclostatin-pentylamide] | 98.4
CCCNC(=O)C[C@H](O)[C@H](CC1CCCCC1)NC(=O)[C@H](Cc1cscn1)NC(=O)[C@H](Cc1cccc2ccccc12)NC(=O)CN1CCOCC1 [Example 103, N-{N-[N-Morpholinoacetyl-3-(1-naphthyl)-L-alanyl]-3-(4-thiazolyl)-L-alanyl}-cyclostatin-propylamide] | 98.6
O=C(C[C@H](O)[C@H](CC1CCCCC1)NC(=O)C(Cc1cscn1)NC(=O)[C@H](Cc1cccc2ccccc12)NC(=O)CCCN1CCOCC1)NCCN1CCOCC1 (mixture of isomers) [Example 42, N-55 N-[N-(4-Morpholinobutyryl)-3-(1-naphthyl -L-alanyl]-3-(4-thiazolyl)-DL-alanyl}-cyclostatin-(2-morpholinoethyl)amide] | 96.7
CCCCNC(=O)C[C@H](O)[C@H](CC1CCCCC1)NC(=O)[C@H](Cc1cscn1)NC(=O)[C@H](Cc1cccc2ccccc12)NC(=O)CN1CCOCC1 [Example 104, N-{N-[N-Morpholinoacetyl-3-(1-naphthyl)-L-alanyl]-3-(4-thiazolyl)-L-alanyl}-cyclostatin-butylamide] | 98.6
CC(C)CCNC(=O)C[C@H](O)[C@H](CC1CCCCC1)NC(=O)[C@H](Cc1cscn1)NC(=O)[C@H](Cc1cccc2ccccc12)NC(=O)CN(C)Cc1ccccc1 [Example 111, N-{N-[N-(Benzyl-N-methylaminoacetyl)-3-(1-naphthyl)-L-alanyl]-3-(4-thiazolyl)-L-alanyl}-cyclostatin-isopentylamide] | 96.0
CCN(CC(=O)N[C@@H](Cc1cccc2ccccc12)C(=O)N[C@@H](Cc1cscn1)C(=O)N[C@@H](CC1CCCCC1)[C@@H](O)CC(=O)NCCN1CCOCC1)Cc1ccccc1 [Example 64, N-{N-[N-(N-Benzyl-N-ethylaminoacetyl)-3-(1-naphthyl)-L-alanyl]-3-(4-thiazolyl)-L-alanyl}-cyclostatin-(2-morpholinoethyl)amide] | 97.5
CN(CC(=O)N[C@@H](CC1CCCCC1)C(=O)N[C@@H](Cc1cscn1)C(=O)N[C@@H](CC1CCCCC1)[C@@H](O)CC(=O)NCCN1CCOCC1)Cc1ccccc1 [Example 101, N-{N-[N-(N-Benzyl-N-methylaminoacetyl)-3-cyclohexyl-L-alanyl]-3-(4-thiazolyl)-L-alanyl}-cyclostatin-(2-morpholinoethyl)amide] | 94.9
